# Experimental data published in PMC2771899, “Augmentation of Reverse Transcription by Integrase through an Interaction with Host Factor, SIP1/Gemin2 Is Critical for HIV-1 Infection” (PLoS ONE, 2009).
# “And” between values parts separate entries of the source, which are not always exact repeats. Equal values may be shown once. “Also recorded” adds a separate entry of the source. Peptide text beside a SMILES is read from it. * marks the point of attachment. Cbz = O=C(OCc1ccccc1)*
# Experiments:
# recombinant SIP1 (rSIP1) [1] = experiment: In vitro binding assay, nickel-column pull-down; conditions: 10 µg rSIP1 with 10 µg His-IN, 2 h, 4°C, nickel agarose, anti-SIP1 Western blot
# IN-V5 = experiment: Expression level of IN-V5 in 293T cells by Western blotting
# HIV-1 RT (GST-RTp66) = experiment: In vitro RT assay, stimulation by IN and SIP1; assay type: biochemical
# Description: (§1) Figure 4 Augmentation of reverse transcription by HIV-1 IN and SIP1 in vitro. (A, B) The in vitro RT assay was carried out with 35 fmoles of HIV-1 RT (GST-RTp66) in the absence or presence of different amounts of full-length rIN (WT-IN). The truncated form of IN (IN1–70) that lack SIP1 binding domains was also tested in apparel as a control. The amount of HIV-1 cDNA was measured by real-time PCR using the HIV-1 R/U5 (A) or R/gag (B) primer pair. Significant augmentation (p<0.05) by WT-IN in the levels of HIV-1 cDNA compared with the level without IN (0 fmole) was indicated by asterisks. (C) The in vitro RT assay was carried out as described in (A) in either the absence or presence of […] of WT-IN, together with different amounts of rSIP1. (D) The in vitro RT assay was carried out with 3.5 fmoles of WT-IN (black bar) or IN1–70 (slash bar), in either the absence (−) or presence (+) of 50 fmoles of rSIP1. (E) The oligo(dT) cellulose resin was incubated with in vitro transcribed HIV-1 RNA for 1 h. After incubation, 10 µg of GST-RT in either the absence or presence of His-IN or rSIP1 was added and incubated for 2 h. After four washes with the IN storage buffer, precipitates were analyzed by immunoblot analysis using an anti-GST antibody.
# For preparation of the viral RNA template for in vitro transcription, the DNA sequences corresponding to HIV-1 lentiviral genomic RNA (pCS-CDF-CG-PRE) were subcloned into pGEM-T vector (pGEM-CS-CDF). Then, the annealed oligonucleotides of TCGA(A)30G and TCGA(T)30C were inserted into the pGEM-CS-CDF vector at the Sal-I site for addition of the poly(A) tail (the pGEM-CS-CDF-PolyA). Synthesized HIV RNA with the poly(A) 30 tail were produced by in vitro transcription using RiboMAX™ Large Scale RNA Production System-T7 (Promega) with Ribo m^7 G Cap analog (Promega) to mimic the capped structure of mRNA. Transcription products of HIV-1 RNA (4.9 kb) were purified with spin columns MicroSpin™ G-25 Columns (American Biosciences), followed by gel-filtration using NAP-5 columns, (American Biosciences) and were used in the in vitro RT assay. The reverse transcription reactions were carried out in a final volume of 20 µl RT reaction buffer consisting of 50 mM Tris-HCl (pH 8.3), 75 mM KCl, 3 mM MgCl2, 10 mM DTT, 1 mM dNTPs, 0.04∼0.4 fmoles of HIV-1 RNA templates and 0.4∼4 fmoles of RNA primer, 3.5∼35 fmol HIV-1 RT (GST-RTp66). The reaction was carried out at 42°C for 30 min in either the absence or presence of different amount of His-IN and recombinant SIP1. The amount of the cDNA product was measured by real-time PCR using primers for the R/U5 or R/gag region.
# Supplementary file pone.0007825.s004.pdf: Figure S4 Stoichiometry and order of IN and SIP1 for their stimulatory effect of cDNA synthesis. (A) The in vitro RT assay was carried out in the absence or presence of different amount of the His-IN (0.2 or 1 pmol) or recombinant SIP1 (0.2 or 1 pmol) as described in Figure 4. The amount of cDNA product was measured by real-time PCR using primers for HIV-1 R/U5 region. (B) The in vitro RT assay was carried out with 5 pmoles of His-IN in the absence or presence of different amount SIP1 (1 or 5 pmol). (C) The in vitro RT assay was carried out in the absence or presence of the His-IN and recombinant SIP1 with [α32P]dCTP and subjected to SDS-PAGE analysis in denatured condition. (D) In vitro RT assay was performed as described above, except that rIN with rRT and rSIP1 were pre-incubated on ice in different combinations and orders (inlet Table). Then, reaction was initiated by adding mixture containing the template RNA/PBS-primer and dNTPs. (0.10 MB PDF) Click here for additional data file.
# rSIP1 = experiment: Dot-blot binding of peptide to SIP1; conditions: 40 or 400 nmol peptide on nitrocellulose, rSIP1 (5 µg), anti-SIP1 antibody
# [2] = target: T1, IN-SIP1 mediated RT activity (Homo sapiens, UniProt O14893); experiment: In vitro RT assay, inhibition of IN-SIP1 mediated RT activity by peptide; assay type: biochemical, HIV-1; conditions: 35 fmol RT, 3.5 fmol His-IN, 50 fmol rSIP1; for Effect on IN-SIP1 mediated RT activity: cDNA relative to control
# T1 construct: the SIP1 gene was amplified from pTRE-SIP1 (kindly provided by Dr. G. Dreyfuss) by PCR and cloned into BamHI and EcoRI sites of pGEX-6P-2; GST (N, cleaved yes); made in house; host or cells: E. coli BL21 (GST-SIP1), E. coli M15 (His-IN)
# T1 sequence (O14893 1-280): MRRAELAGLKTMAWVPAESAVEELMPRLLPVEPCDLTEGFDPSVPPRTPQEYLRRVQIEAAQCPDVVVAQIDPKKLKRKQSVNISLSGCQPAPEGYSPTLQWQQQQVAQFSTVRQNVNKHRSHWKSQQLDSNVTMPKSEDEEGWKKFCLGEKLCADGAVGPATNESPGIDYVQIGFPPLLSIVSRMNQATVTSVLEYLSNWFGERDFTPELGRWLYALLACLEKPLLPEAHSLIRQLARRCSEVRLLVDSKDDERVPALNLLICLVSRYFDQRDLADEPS
# [3] = test system: IN-SIP1 interaction (His-IN, rSIP1); experiment: Dot-blot inhibition of IN-SIP1 interaction by peptide; assay type: binding, HIV-1
# [4] = test system: HIVNL43-luc/VSV-G pseudotypes; assay type: cell-based, HIV-1
# RT on viral RNA = experiment: RT assembly on viral RNA; assay type: biochemical; conditions: HIV-1 RNA on oligo(dT) cellulose, 10 µg GST-RT, 2 h, immunoblot anti-GST (Figure 4E)
# Description: as §1
# Next, the effects of IN and SIP1 on the assembly of RT on viral RNA was examined. […] Levels of RT on viral RNA were determined by immunoblot assay. […]
# RT = experiment: Direct binding to RT; set-up: species or system HIV-1; conditions: data not shown
# [5] = target: full-length His-tagged HIV-1 integrase Y15A (HIV-1 (pNL4-3)); experiment: not stated; data not shown; in vitro, recombinant IN-Y15A
# recombinant SIP1 (rSIP1) [6] = target: recombinant SIP1 (rSIP1) (UniProt O14893)
# recombinant SIP1 (rSIP1) [7] = target: recombinant SIP1 (rSIP1) (UniProt O14893); remark: listed apart in the source
# [8] = target: wild type HIV-1 integrase with V5 epitope (IN-V5, WT-V5) (HIV-1 (pNL4-3)); experiment: cross-linking
compound,measurement,setting,value
1-60: His-tagged IN deletion form,Binding to rSIP1 in vitro,recombinant SIP1 (rSIP1) [1],did not bind to rSIP1
1-70: His-tagged IN deletion form,Binding to rSIP1 in vitro,recombinant SIP1 (rSIP1) [1],did not bind to rSIP1
1-80: His-tagged IN deletion form,Binding to rSIP1 in vitro,recombinant SIP1 (rSIP1) [1],significant binding to rSIP1
1-90: His-tagged IN deletion form,Binding to rSIP1 in vitro,recombinant SIP1 (rSIP1) [1],significant binding to rSIP1
1-100: His-tagged IN deletion form,Binding to rSIP1 in vitro,recombinant SIP1 (rSIP1) [1],significant binding to rSIP1
1-220: His-tagged IN deletion form,Binding to rSIP1 in vitro,recombinant SIP1 (rSIP1) [1],significantly restored binding of IN to rSIP1
1-230: His-tagged IN deletion form,Binding to rSIP1 in vitro,recombinant SIP1 (rSIP1) [1],significantly restored binding of IN to rSIP1
1-240: His-tagged IN deletion form,Binding to rSIP1 in vitro,recombinant SIP1 (rSIP1) [1],significantly reduced binding to rSIP1
1-250: His-tagged IN deletion form,Binding to rSIP1 in vitro,recombinant SIP1 (rSIP1) [1],significantly reduced binding to rSIP1
1-260: His-tagged IN deletion form,Binding to rSIP1 in vitro,recombinant SIP1 (rSIP1) [1],significantly reduced binding to rSIP1
"1-270: His-tagged IN, the 18 amino acids from the C-terminal deleted",Binding to rSIP1 in vitro,recombinant SIP1 (rSIP1) [1],efficient interaction with rSIP1 in vitro
CC(C)C[C@@H](C=O)NC(=O)[C@H](CC(C)C)NC(=O)[C@H](CC(C)C)NC(=O)OCc1ccccc1 [MG132] (Cbz-Leu-Leu-Leu-aldehyde),Effect of MG132 on level of WT-V5,IN-V5; 10 µM MG-132,not changed
same,Effect of MG132 on expression level of IN mutants,"IN-V5; 10 µM MG-132, Y15A-V5, K186Q-V5 and LL241,242AA-V5",restored the expression levels of the IN mutants
same,Effect of MG132 on level of IN-V5 in siSIP1-treated cells,IN-V5; siSIP1 treated,restored
IN1–70: truncated HIV-1 IN that lacks the central and C-terminal domains,Effect on level of cDNA products (R/U5),"HIV-1 RT (GST-RTp66); truncated IN, any dose, 35 fmoles RT, 42°C, 30 min, real-time PCR, P = 0.58∼0.98",no significant stimulatory effect at any dose
"IN154–174: control peptide, residues of 154–174, contains a motif critical for the interaction with LEDGF/p75 (MNKELKKIIGQVRDQAEHLKT; Integrase; UniProt P04585 1301-1321, looked up, fragment) [reference compound]",Direct binding of peptide to rSIP1,rSIP1,did not
same,Effect on IN-SIP1 mediated RT activity,[2],inhibitory effect was not evident
IN231–251: synthetic peptide corresponding to the residues of 231–251 of HIV-1 IN,Peptide concentration that reduces His-WT binding to SIP1 to non-specific background levels,"[3]; His-IN (10 µg) on nitrocellulose, 5 µg rSIP1",at least 50 µM
same,Interference with binding of full-length IN (His-WT) to SIP1,"[3]; His-IN (10 µg) on nitrocellulose, 5 µg rSIP1, peptide present",significantly interfered with the binding of the full-length IN (His-WT) to the SIP1 protein
same,Effect on IN-SIP1 interaction and its RT-stimulatory effects,[3]; summary statement,inhibit the IN-SIP1 interaction and its RT-stimulatory effects
same,Direct binding of peptide to rSIP1,rSIP1,efficiently bound to rSIP1
same,Effect on HIV-1 infectivity,[4],did not significantly reduce HIV-1 infectivity
same,"IC50, inhibition of IN-SIP1 mediated RT activity","[2]; 42°C, 30 min, 20 µl, real-time PCR",~1 nmoles per reaction
same,Effect on IN-SIP1 mediated RT activity,[2],significantly reduced the IN-SIP1 mediated RT activity in a dose-dependent manner
"SIP1: survival motor neuron-interacting protein 1, recombinant",Level of RT on viral RNA,RT on viral RNA,enhanced RT assembly on viral RNA
same,Effect of SIP1 on RT activity at higher amounts of IN,"HIV-1 RT (GST-RTp66); 5 pmoles His-IN, SIP1 1 or 5 pmol (Figure S4B)",not evident; also recorded: could not observed when high amount of IN protein was present
same,Stimulation of RT activity by SIP1 with IN1–70,"HIV-1 RT (GST-RTp66); 3.5 fmoles IN1–70, 50 fmoles rSIP1, P = 0.98",no significant
same,Stimulation of RT activity by SIP1 in presence of full-length IN,"HIV-1 RT (GST-RTp66); 3.5 fmoles WT-IN, 50 fmoles rSIP1, P = 0.001",Significant stimulation of RT activity
same,Enhancement of IN-stimulated RT activity by SIP1,HIV-1 RT (GST-RTp66); WT-IN plus different amounts of rSIP1 (Figure 4C),further enhanced by SIP1 in a dose-dependent manner
same,Effect of pre-incubation order on stimulatory effect,"HIV-1 RT (GST-RTp66); pre-incubation of RT and IN before SIP1, on ice (Figure S4D)",most effective stimulatory effect
same,Stimulation of RT activity by SIP1 alone,"HIV-1 RT (GST-RTp66); without IN, P = 0.69",no significant
same,Direct binding to RT,RT,cannot bind to RT directly
full-length His-tagged HIV-1 integrase Y15A (enzyme),stoichiometry N,[5],2
synthetic peptide IN60–80,"IC50 of inhibition of the IN-SIP1 mediated RT activity in the in vitro reverse transcription assay (35 fmol RT, 3.5 fmol His-IN, 50 fmol rSIP1); the pair blocked is m2 with m15 (pmoles per reaction)",recombinant SIP1 (rSIP1) [6],10
same,"HIV-1 infectivity (luciferase activity) in PMA-stimulated THP-1 cells with 100 µM peptide, relative to control; the pair blocked is IN with SIP1",recombinant SIP1 (rSIP1) [7],20 % of control and 25 % of control
synthetic peptide IN231–251,"IC50 of inhibition of the IN-SIP1 mediated RT activity in the in vitro reverse transcription assay (35 fmol RT, 3.5 fmol His-IN, 50 fmol rSIP1); the pair blocked is m2 with m15 (nmoles per reaction)",recombinant SIP1 (rSIP1) [6],1
"wild type HIV-1 integrase with V5 epitope (IN-V5, WT-V5) (enzyme)",tetramer formation relative to control siRNA treated cells (SIP1 knock-down cells),[8],50%
